# From patent US20100022014A1, “Method for Evaluating Obesity Controller” (Kao Corporation, priority 2006, published 2010)
# Tested on: insulin secretion
# Test: Postprandial insulin secretion after oral glucose + triolein emulsion with added 1-monoolein (Example 5)
# Format: in vivo, mouse
# Details: MAG in a one-tenth or one-fifth amount, in words
# Description: Triolein (obtained from Sigma Corp.) was used as triacylglycerol, and 1-monoolein (obtained from Sigma Corp.) was used as monoacylglycerol. Glucose (Kanto Chemical Co., Inc.) was used as the carbohydrate.
# Eight fasted mice (C57BL/6J, male, 8 weeks old) were grouped in each group, and the mice were orally administered, using a sonde, with 2 mg/g of body weight of glucose only; with the glucose and also 2 mg/g of body weight of triolein (TAG), in the form of an emulsion obtained by emulsifying 0.02 mg/g of body weight of the lipid with egg yolk lecithin (Glucose and TAG/MAG0, respectively); or with mixtures obtained by respectively adding 0.08, 0.2 and 0.4 mg/g of body weight of 1-monoolein (MAG) to the emulsion (TAG/MAG1, TAG/MAG2, and TAG/MAG3, respectively). The blood was sampled from the orbital vein of each mouse before the administration, and at 10 and 30 minutes after the administration, the blood insulin level was measured, and the area under curve (AUC) of the graph was calculated. The insulin level was measured by the ELISA method (insulin measuring kit, Morinaga Biochemical Lab, Inc.).
# Relative values of the amount of secreted insulin (AUC) for 30 minutes after the administration, with respective to the insulin AUC value of the mice which ingested glucose only, taken as 100, are presented in Table 9.
smiles,measurement,value
"CCCCCCCC/C=C\CCCCCCCC(=O)OCC(O)CO (stereo not shown) [MAG, 1-monoolein]",Effect on postprandial insulin secretion relative to TAG/MAG0,effect of suppressing the postprandial insulin secretion in the blood was recognized
